Laboratory results: patent publication US20180099931A1 (AbbVie S.à.r.l., priority 2016, published 2018)
Like-named read-outs stand apart in the source and are kept apart here.

Target: T1, F508delCFTR (Homo sapiens, UniProt P13569, DEL508-508)
T1 construct: expressed in transfected cells; host or cells: CFBE41o- human lung-derived epithelial cells (CFBE4lo-F508delCFTR-HRP), doxycycline-inducible
Assay: Cell Surface Expression-Horse Radish Peroxidase (CSE-HRP) Assay;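 for Maximum % activity (with co-corrector): co-corrector and positive control are both the same reference corrector at 2 µM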;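 for Maximum % activity (without co-corrector): percent of the 2 µM on-plate positive control corrector response above DMSO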
Format: cell-based
Details: for Maximum % activity (with co-corrector) / Emax: maximum at any tested concentration, normalized to on-plate positive control; for Emax: read-out: Maximum % activity (without co-corrector)

[1] = test compound without co-corrector, read-out: EC50 (without co-corrector)
[2] = with co-corrector (2 μM of 3-[(2R,4R)-4-({[1-(2,2-difluoro-1,3-benzodioxol-5-yl)cyclopropyl]carbonyl}amino)-7-methoxy-3,4-dihydro-2H-chromen-2-yl]benzoic acid), read-out: EC50 (with co-corrector)
[3] = CSE-HRP, test compound without co-corrector, read-out: EC50 (without co-corrector)
[4] = CSE-HRP, with co-corrector (2 μM of 3-[(2R,4R)-4-({[1-(2,2-difluoro-1,3-benzodioxol-5-yl)cyclopropyl]carbonyl}amino)-7-methoxy-3,4-dihydro-2H-chromen-2-yl]benzoic acid), read-out: EC50 (with co-corrector)
[5] = CSE-HRP, with co-corrector (2 μM)
[6] = test compound without co-corrector
[7] = with co-corrector (2 μM of 3-[(2R,4R)-4-({[1-(2,2-difluoro-1,3-benzodioxol-5-yl)cyclopropyl]carbonyl}amino)-7-methoxy-3,4-dihydro-2H-chromen-2-yl]benzoic acid)

T1 sequence (P13569 with tags, fused parts or gaps DEL508-508): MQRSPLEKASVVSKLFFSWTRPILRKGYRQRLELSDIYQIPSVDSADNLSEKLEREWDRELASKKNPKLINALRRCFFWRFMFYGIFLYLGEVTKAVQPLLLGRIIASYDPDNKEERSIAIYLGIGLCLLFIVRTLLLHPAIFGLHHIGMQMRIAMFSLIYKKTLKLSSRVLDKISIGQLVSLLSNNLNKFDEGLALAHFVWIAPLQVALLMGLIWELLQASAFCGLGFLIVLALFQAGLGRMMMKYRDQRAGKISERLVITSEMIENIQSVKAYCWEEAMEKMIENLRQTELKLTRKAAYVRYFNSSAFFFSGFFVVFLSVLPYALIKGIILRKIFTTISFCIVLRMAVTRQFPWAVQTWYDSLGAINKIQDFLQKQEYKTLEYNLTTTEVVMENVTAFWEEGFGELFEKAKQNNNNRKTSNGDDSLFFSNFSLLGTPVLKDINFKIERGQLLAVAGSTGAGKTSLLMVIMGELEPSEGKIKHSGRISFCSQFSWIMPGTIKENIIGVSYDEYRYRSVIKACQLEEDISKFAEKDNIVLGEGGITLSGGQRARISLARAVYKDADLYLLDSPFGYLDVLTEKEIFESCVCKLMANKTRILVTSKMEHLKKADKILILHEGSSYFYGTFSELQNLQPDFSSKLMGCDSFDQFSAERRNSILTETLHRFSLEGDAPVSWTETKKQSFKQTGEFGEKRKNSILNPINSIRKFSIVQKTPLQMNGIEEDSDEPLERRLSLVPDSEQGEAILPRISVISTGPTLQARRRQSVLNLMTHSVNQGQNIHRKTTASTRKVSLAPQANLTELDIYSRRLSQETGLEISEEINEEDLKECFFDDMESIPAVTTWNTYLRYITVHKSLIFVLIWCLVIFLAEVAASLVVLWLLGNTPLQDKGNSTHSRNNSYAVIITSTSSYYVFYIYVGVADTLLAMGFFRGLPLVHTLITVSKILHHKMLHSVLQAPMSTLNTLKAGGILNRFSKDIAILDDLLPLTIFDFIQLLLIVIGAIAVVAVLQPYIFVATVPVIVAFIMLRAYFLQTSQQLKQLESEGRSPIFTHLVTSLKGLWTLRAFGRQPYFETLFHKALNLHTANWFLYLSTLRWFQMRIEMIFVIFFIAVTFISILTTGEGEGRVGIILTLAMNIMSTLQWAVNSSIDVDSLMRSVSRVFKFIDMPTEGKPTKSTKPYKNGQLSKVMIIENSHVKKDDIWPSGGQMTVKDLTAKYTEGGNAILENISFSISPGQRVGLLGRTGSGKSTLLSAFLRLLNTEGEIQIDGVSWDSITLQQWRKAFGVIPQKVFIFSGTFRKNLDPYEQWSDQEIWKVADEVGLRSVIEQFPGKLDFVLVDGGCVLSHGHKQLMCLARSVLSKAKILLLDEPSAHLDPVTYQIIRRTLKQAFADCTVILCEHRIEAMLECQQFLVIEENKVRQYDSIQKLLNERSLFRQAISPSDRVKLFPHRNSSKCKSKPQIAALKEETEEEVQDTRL

| EC50 [1] [nM] | EC50 [2] [nM] | Maximum % activity (with co-corrector) (with co-corrector (2 μM)) | Emax (without co-corrector) [%] | EC50 [3] [nM] | EC50 [4] [nM] | Maximum % activity (with co-corrector) [5] | Emax (CSE-HRP, without co-corrector) [%] | Emax [6] [%] | Maximum % activity (with co-corrector) [7] | Structure (SMILES) |
| --- | --- | --- | --- | --- | --- | --- | --- | --- | --- | --- |
|  |  |  |  | 1000 to 10000 | 1000 to 10000 | ++ (≥150 and <350) | < 100 |  |  | CC(C)(C)[C@H]1[C@H](NCc2cc(Cl)cc(Cl)c2)[C@H](c2ccccc2)N(C(=O)C2CCCCC2)[C@@H]1C(=O)O [II-111] |
| < 1000 | < 1000 | +++ (≥350) | > 200 |  |  |  |  |  |  | COc1ccc(C(C)(C)C)cc1CN[C@H]1[C@H](C(C)(C)C)[C@@H](C(=O)O)N(C(=O)C2CCCCC2)[C@H]1c1ccccc1C(C)C [Example I-185] |
| 1000 to 10000 | 1000 to 10000 |  |  |  |  |  |  | < 100 | ++ (≥150 and <350) | COc1ncc(C(F)(F)F)cc1CN[C@H]1[C@H](C(C)(C)C)[C@@H](C(=O)O)N(C(=O)C2CCc3ccc(F)cc3O2)[C@H]1c1ccccc1 (stereo partly shown) [II-435] |
| 1000 to 10000 | 1000 to 10000 | +++ (≥350) | < 100 |  |  |  |  |  |  | Cc1cc(C(F)(F)F)cc(N[C@@H]2[C@@H](C(C)(C)C)[C@H](C(=O)O)N(C(=O)C3CCCCC3)[C@@H]2c2ccccc2)n1 (racemic) [Example 1, rac-(2R,3R,4R,5R)-3-tert-butyl-1-(cyclohexanecarbonyl)-4-{[6-methyl-4-(trifluoromethyl)pyridin-2-yl]amino}-5-phenylpyrrolidine-2-carboxylic acid] |
| 1000 to 10000 | 1000 to 10000 |  |  |  |  |  |  | < 100 | +++ (≥350) | COc1cccc(-c2cc(CN[C@H]3[C@H](C(C)(C)C)[C@@H](C(=O)O)N(C(=O)C4CCCCC4)[C@H]3c3ccccc3)c(OC)cn2)c1 [II-418] |
| 1000 to 10000 | 1000 to 10000 | +++ (≥350) | < 100 |  |  |  |  |  |  | COc1cc(C(F)(F)F)cc(N[C@@H]2[C@@H](C(C)(C)C)[C@H](C(=O)O)N(C(=O)C3CCCCC3)[C@@H]2c2ccccc2)n1 (racemic) [Example 2, rac-(2R,3R,4R,5R)-3-tert-butyl-1-(cyclohexanecarbonyl)-4-{[6-methoxy-4-(trifluoromethyl)pyridin-2-yl]amino}-5-phenylpyrrolidine-2-carboxylic acid] |
|  |  |  |  | 1000 to 10000 | 1000 to 10000 | +++ (≥350) | 100 to 200 |  |  | Cc1c(N[C@H]2[C@H](C(C)(C)C)[C@@H](C(=O)O)N(C(=O)C3CCCCC3)[C@H]2c2ccccc2)c(Cl)nc2ccc(F)cc12 [II-144] |
|  |  |  |  | 1000 to 10000 | 1000 to 10000 | +++ (≥350) | 100 to 200 |  |  | COc1cc(F)ccc1CN[C@@H]1[C@@H](C(C)(C)C)[C@H](C(=O)O)N(C(=O)OC(C)C)[C@@H]1c1ccccc1 (racemic) [II-39] |
| 1000 to 10000 | < 1000 | +++ (≥350) | > 200 |  |  |  |  |  |  | CCC(C)c1cnc(OC)c(CN[C@H]2[C@H](C(C)(C)C)[C@@H](C(=O)O)N(C(=O)C3CCCCC3)[C@H]2c2ccccc2)c1 (stereo partly shown) [Example I-70] |
| > 10000 | 1000 to 10000 | ++ (≥150 and <350) |  |  |  |  |  | < 100 |  | CC(C)(C)[C@H]1[C@H](NCc2ccc3c(c2)CCO3)[C@H](c2ccccc2)N(C(=O)C2CCCCC2)[C@@H]1C(=O)O [III-122] |

The next lines start with the molecule.

| Structure (SMILES) | EC50 [1] [nM] | EC50 [2] [nM] | Maximum % activity (with co-corrector) (with co-corrector (2 μM)) | Emax (without co-corrector) [%] | EC50 [3] [nM] | EC50 [4] [nM] | Maximum % activity (with co-corrector) [5] | Emax (CSE-HRP, without co-corrector) [%] | Emax [6] [%] | Maximum % activity (with co-corrector) [7] |
| --- | --- | --- | --- | --- | --- | --- | --- | --- | --- | --- |
| COc1ccc(C(F)(F)F)cc1CN[C@@H]1[C@@H](C(C)(C)C)[C@H](C(=O)O)N(C(=O)OC(C)C)[C@@H]1c1cccnc1N(C)C (racemic) [Example I-29] | 1000 to 10000 | 1000 to 10000 | +++ (≥350) | > 200 |  |  |  |  |  |  |
| COc1ncc(C(C)(C)C)cc1CN[C@H]1[C@H](C(C)(C)C)[C@@H](C(=O)O)N(C(=O)[C@@H]2CCCCO2)[C@H]1c1cccnc1N(C)C [Example I-142] | 1000 to 10000 | 1000 to 10000 | +++ (≥350) | > 200 |  |  |  |  |  |  |
| COc1cc2ccccc2cc1CN[C@@H]1[C@H](C(C)(C)C)[C@@H](C(=O)O)N(C(=O)OC(C)C)[C@H]1c1ccccc1 [II-554] | 1000 to 10000 | 1000 to 10000 |  |  |  |  |  |  | 100 to 200 | +++ (≥350) |
| COc1ncc(C(F)(F)F)cc1CN[C@H]1[C@H](C(C)(C)C)[C@@H](C(=O)O)N(C(=O)[C@H](OC)c2ccccc2)[C@H]1c1ccccc1 [II-83] |  |  |  |  | 1000 to 10000 | < 1000 | +++ (≥350) | > 200 |  |  |
| COc1nc2ccccc2cc1CN[C@H]1[C@H](C(C)(C)C)[C@@H](C(=O)O)N(C(=O)[C@@H]2CCCO2)[C@H]1c1ccccc1C(C)C [Example 100, (2S,3S,4S,5S)-3-tert-butyl-4-{[(2-methoxyquinolin-3-yl)methyl]amino}-1-[(2S)-oxolane-2-carbonyl]-5-[2-(propan-2-yl)phenyl]pyrrolidine-2-carboxylic acid] | 1000 to 10000 | < 1000 | +++ (≥350) | > 200 |  |  |  |  |  |  |
| COc1ccc(C2(C)CCC2)cc1CN[C@H]1[C@H](C(C)(C)C)[C@@H](C(=O)O)N(C(=O)[C@@H]2CCCCO2)[C@H]1c1ccccc1C [Example 109, (2S,3S,4S,5S)-3-tert-butyl-4-({[2-methoxy-5-(1-methylcyclobutyl)phenyl]methyl}amino)-5-(2-methylphenyl)-1-[(2S)-oxane-2-carbonyl]pyrrolidine-2-carboxylic acid] | < 1000 | < 1000 | +++ (≥350) | > 200 |  |  |  |  |  |  |
| Cc1cc(C(F)(F)F)cc(N[C@H]2[C@H](C(C)(C)C)[C@@H](C(=O)O)N(C(=O)C3CCCC(F)(F)C3)[C@H]2c2cccnc2N(C)C)n1 (stereo partly shown) [II-503] | 1000 to 10000 | 1000 to 10000 |  |  |  |  |  |  | < 100 | +++ (≥350) |
| COc1ccc(C2(C)CCC2)cc1CN[C@H]1[C@H](C(C)(C)C)[C@@H](C(=O)O)N(C(=O)[C@@H]2CCCCO2)[C@H]1c1cccnc1N(C)C [Example 60, (2S,3S,4S,5S)-3-tert-butyl-5-[2-(dimethylamino)pyridin-3-yl]-4-({[2-methoxy-5-(1-methylcyclobutyl)phenyl]methyl}amino)-1-[(2S)-oxane-2-carbonyl]pyrrolidine-2-carboxylic acid] | 1000 to 10000 | 1000 to 10000 | +++ (≥350) | > 200 |  |  |  |  |  |  |
| COc1cc(C(F)(F)F)ccc1CN[C@@H]1[C@@H](C(C)(C)C)[C@H](C(=O)O)N(C(=O)C2C3COCC32)[C@@H]1c1ccccc1N(C)C (mixture of isomers) [Example I-24] | 1000 to 10000 | 1000 to 10000 | +++ (≥350) | > 200 |  |  |  |  |  |  |
| COc1ccc(CN[C@@H]2[C@@H](C(C)(C)C)[C@H](C(=O)O)N(C(=O)OC(C)C)[C@@H]2c2ccccc2)c(OC)c1 (racemic) [III-91] | 1000 to 10000 | 1000 to 10000 |  |  |  |  |  |  | < 100 | ++ (≥150 and <350) |
| COc1ccc(C(C)(C)C)cc1CN[C@H]1[C@H](C(C)(C)C)[C@@H](C(=O)O)N(C(=O)Cc2ccccc2Cl)[C@H]1c1ccccc1 [II-183] |  |  |  |  | < 1000 | < 1000 | +++ (≥350) | > 200 |  |  |
| COc1ccc(C(C)(C)C)cc1CN[C@H]1[C@H](C(C)(C)C)[C@@H](C(=O)O)N(C(=O)C2CCCCO2)[C@H]1c1ccccc1C(C)C (relative stereo) [Example 62, (2S,3S,4S,5S)-3-tert-butyl-4-{[(5-tert-butyl-2-methoxyphenyl)methyl]amino}-1-[(2S*)-oxane-2-carbonyl]-5-[2-(propan-2-yl)phenyl]pyrrolidine-2-carboxylic acid] | < 1000 | < 1000 | +++ (≥350) | > 200 |  |  |  |  |  |  |
| COc1ccc(C(C)(C)C)cc1CN[C@H]1[C@H](C(C)(C)C)[C@@H](C(=O)O)N(C(=O)C2CCCCC2)[C@H]1c1cccn(C)c1=O (racemic) [Example III-228, rac-(2S,3S,4S,5S)-3-tert-butyl-4-{[(5-tert-butyl-2-methoxyphenyl)methyl]amino}-1-(cyclohexanecarbonyl)-5-(1-methyl-2-oxo-1,2-dihydropyridin-3-yl)pyrrolidine-2-carboxylic acid] | > 10000 | > 10000 | + (<150) |  |  |  |  |  | < 100 |  |
| COc1nc2ccccc2cc1CN[C@H]1[C@H](C(C)(C)C)[C@@H](C(=O)O)N(C(=O)OC(C)C)[C@H]1c1ccccc1C [II-579] | 1000 to 10000 | < 1000 |  |  |  |  |  |  | > 200 | +++ (≥350) |
| COc1ccc(C(C)(C)C)cc1CN[C@H]1[C@H](C(C)(C)C)[C@@H](C(=O)O)N(C(=O)[C@@H]2CCCO2)[C@H]1c1ccccc1C(C)C [Example 104, (2S,3S,4S,5S)-3-tert-butyl-4-{[(5-tert-butyl-2-methoxyphenyl)methyl]amino}-1-[(2S)-oxolane-2-carbonyl]-5-[2-(propan-2-yl)phenyl]pyrrolidine-2-carboxylic acid] | 1000 to 10000 | < 1000 | +++ (≥350) | > 200 |  |  |  |  |  |  |
